Structures can show the parent of a compound that is named as a salt. Where two headings read alike, the source gives them in different places.
Experiments:
[1] = Rodent pharmacokinetic study; assay type: in vivo; conditions: Wistar, Wister rat/Male
Protocol: Rodent Pharmacokinetic Study
Three to five animals were housed in each cage. Animals were kept fasted over night and maintained on a 12 hours light/dark cycle. Three rats were dosed NCE orally (15 or 5 mg/kg) and intravenously (5 mg/kg) on day 0 and day 2
At each time point blood was collected by jugular vein. Plasma was stored frozen at −20° C. until analysis. The concentrations of the NCE compound in plasma were determined using LC-MS/MS method. Schedule time points: Pre dose 0.25, 0.5, 1, 1.5, 2, 3, 4, 6, 8, 10, 12 and 24 hours after dosing (n=3).
Pharmacokinetic parameters Cmax, Tmax, AUCt, T1/2 and Bioavailability were calculated by non-compartmental model using software WinNonlin version 5.0.1.

[2] = molecular target: Nicotinic Acetylcholine α4β2 Receptor (UniProt P09483+P12390); assay: Binding assay for human or rat nicotinic acetylcholine α4β2 receptor ([3H]Cytisine displacement); conditions: [3H]Cytisine 2.5 nM, rat brain frontal cortex or recombinant human receptor in CHO cells (not specified which)
Protocol: Binding Assay for Human or Rat Nicotinic Acetylcholine α4β2 Receptor
• Receptor source: Rat brain frontal cortex or recombinant human cDNA expressed in CHO cells • Radioligand: [^3H]Cytisine 15-40 Ci/mmole • Final ligand concentration—[2.5 nM] • Non-specific determinant: Epibatidine—[0.1 μM] • Reference compound: Epibatidine • Positive control: Epibatidine Incubation Conditions:
Increasing concentrations of test compounds or standard were incubated with membrane receptors and radioligand in 120 mM NaCl, 2.5 mM KCl, 1 mM CaCl2, 1 mM MgCl2 and 50 mM TRIS-HCl (pH 7.4) for 60 minutes at room temperature. The reaction was terminated by rapid vacuum filtration onto the glass fiber filters. Radioactivity trapped onto the filters was determined and compared to the control values in order to ascertain any interactions of the test compound(s) with either cloned human or rat receptor binding site.
Literature Reference: Bunnelle W. H., Daanen J. F., Ryther K. B., Schrimpf M. R., Dart M. J., Gelain A., Meyer M. D., Frost J. M., Anderson D. J., Buckley M., Curzon P., Cao Y-J., Puttfarcken P., Searle X., Ji J., Putman C. B., Surowy C., Toma L. and Barlocco D. Structure-Activity Studies and Analgesic Efficacy of N-(3-Pyridinyl)-Bridged Bicyclic Diamines, Exceptionally Potent Agonists at Nicotinic Acetylcholine Receptors. J. Med. Chem. 2007, 50, […].

[3] = molecular target: T1, recombinant human α4β2 nicotinic acetylcholine receptor (Homo sapiens, UniProt P17787+P43681); assay: Determination of IC50 and Kb values, aequorin luminescence (intracellular calcium) assay in CHO cells; assay type: cell-based; conditions: antagonist mode vs epibatidine
T1 construct: expressed in transfected cells
T1 sequence (P43681 29-627 limits assumed): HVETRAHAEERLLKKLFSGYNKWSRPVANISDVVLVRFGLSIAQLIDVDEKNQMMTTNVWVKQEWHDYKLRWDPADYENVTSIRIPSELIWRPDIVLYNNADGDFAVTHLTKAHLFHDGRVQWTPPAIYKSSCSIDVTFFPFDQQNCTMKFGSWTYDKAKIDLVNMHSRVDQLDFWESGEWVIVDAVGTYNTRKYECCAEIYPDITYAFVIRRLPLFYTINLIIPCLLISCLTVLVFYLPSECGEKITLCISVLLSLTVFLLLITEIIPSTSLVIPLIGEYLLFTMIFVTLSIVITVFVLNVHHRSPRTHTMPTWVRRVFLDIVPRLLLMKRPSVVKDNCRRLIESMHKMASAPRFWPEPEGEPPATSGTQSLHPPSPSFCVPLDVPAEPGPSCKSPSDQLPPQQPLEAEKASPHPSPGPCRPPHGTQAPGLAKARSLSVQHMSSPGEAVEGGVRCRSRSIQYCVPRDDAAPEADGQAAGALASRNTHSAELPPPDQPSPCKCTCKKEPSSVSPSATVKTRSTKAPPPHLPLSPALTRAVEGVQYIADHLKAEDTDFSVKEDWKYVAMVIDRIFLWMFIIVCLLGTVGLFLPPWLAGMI
T1 sequence (P17787 26-502): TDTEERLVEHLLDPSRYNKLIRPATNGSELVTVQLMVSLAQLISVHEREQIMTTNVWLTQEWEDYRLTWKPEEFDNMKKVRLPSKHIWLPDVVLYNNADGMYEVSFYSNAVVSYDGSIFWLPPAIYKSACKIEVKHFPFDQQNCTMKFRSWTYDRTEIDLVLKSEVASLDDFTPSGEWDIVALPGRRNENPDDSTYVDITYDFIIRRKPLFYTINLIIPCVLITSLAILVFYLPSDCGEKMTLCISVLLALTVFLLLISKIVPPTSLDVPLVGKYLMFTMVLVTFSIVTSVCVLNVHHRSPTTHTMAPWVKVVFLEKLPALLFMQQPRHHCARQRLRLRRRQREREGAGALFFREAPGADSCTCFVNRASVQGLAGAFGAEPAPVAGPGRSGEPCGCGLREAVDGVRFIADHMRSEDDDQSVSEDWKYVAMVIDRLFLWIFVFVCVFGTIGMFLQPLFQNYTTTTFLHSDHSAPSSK
Protocol: Determination of IC50 and Kb Values for Nicotinic Acetylcholine α4β2 Receptor Ligands
A stable CHO cell line expressing recombinant human α4β2 nicotinic acetylcholine receptor transiently expressing aequorin protein was used for cell-based assay. The assay offers a non-radioactive based approach to determine binding of a compound to ligand gated ion channels. In this specific assay, the level of intracellular calcium, which is modulated by activation or inhibition of the channel is measured. Both the channel and aequorin genes are expressed at high level under the control of powerful CMV promotor.
The above cells were grown in 96 well clear bottom white plates in Hams F12 medium containing 10% fetal bovine serum (FBS). Prior to the addition of compounds and/or agonist, cells were serum starved for six hours. Coelentarazine (a prosthetic group for aequorin protein) was added in the medium containing 0.1% dialyzed serum and incubated overnight at 27° C. Cells were washed with assay buffer and increasing concentration of the test compound or standard were added to the plate for antagonist mode. A fixed concentration of the agonist (eipbatidine) was injected into the plate and luminescence was measured for 10 seconds. For evaluation of the compound in agonist mode, increasing concentration of the standard or test compound were injected and the luminescence was measured. Luminescence units were plotted against the compound concentrations using Graphpad software. IC50 values of the compounds were defined as the concentration required in reducing the luminescent units by 50%. The Kb values were calculated by feeding the concentration of the agonist used in the assay and its EC50 value in the same software.
Literature References: Karadsheh M. S., Shah M. S., Tang X., Macdonald R. L. and Stitzel J. A. Functional characterization of mouse α4β2 nicotinic acetylcholine receptors stably expressed in HEK293T cells. J. Neurochem. 2004, 91, 1138-1150.

[4] = Rodent brain penetration study; conditions: male, Wistar, rat, brain homogenate and plasma, po, 5 mg/kg
Protocol: Rodent Brain Penetration Study
(§1) Three animals were housed in each cage. Animals were given water and food ad libitum throughout the experiment, and maintained on a 12 hours light/dark cycle.
(§2) NCE compound was dissolved in water and administered orally. At Tmax (0.5, 1.0 and 2.0) animals were sacrificed to collect the plasma and brain tissue and were homogenized. Plasma and Brain was stored frozen at −20° C. until analysis. The concentrations of the NCE compound in plasma and Brain were determined using LC-MS/MS method.
(§3) The NCE compounds were quantified in plasma and brain homogenate by validated LC-MS/MS method using solid phase extraction technique. NCE compounds were quantified in the calibration range of 1-500 ng/mL in plasma and brain homogenate. Study samples were analyzed using calibration samples in the batch and quality control samples spread across the batch. Extents of brain-blood ratio were calculated (Cb/Cp).

Male Wister rats = assay: Acute food intake study (animal model of hyperphagia); assay type: in vivo, rat; conditions: oral
Protocol: The appetite suppressing properties of compounds of this invention were studied using an animal model of hyperphagia.
Male Wister rats (200-210 grams) obtained from Raj Biotech, India were used as experimental animals. The experiment consisted of 6 days. The rats were adapted to the 18 hour fasting and 6 hour feeding pattern. The animals were housed in a group of three in the cages provided with the fasting grills and were fasted for 18 hours. After 18 hour fasting the rats were separated and placed individually in a cage. Weighed amount of feed was provided to rats for 6 hour and the feed intake at 1, 2, 4 and 6 hours was recorded. Again the rats were regrouped and fasted for 18 hour. The above procedure was followed for 5 days. The average cumulative food intake by the rats on the last 3 days was calculated. Animals were randomised on the basis of their last three days food intake.
One group of 8 rats received vehicle (2 mL/Kg) orally and another set of animals received compound of the formula (I) orally. Then the rats were given access to food and the food intake at 1, 2, 4 and 6 hours was recorded. The food intake by the rats treated with test compound was compared with the vehicle treated group by using students‘t’ test.

in vivo = conditions: male, Wistar, rat, po, 15 mg/kg
Protocol: Rodent Brain Penetration Study
as §1, §2, §3

[5] = plasma, 5 mg/kg Per-Oral vs 5 mg/kg Intravenous

Structure (SMILES): CN(C)CC1CC2CC2N1c1cncc(Br)c1.Cl (centres unmarked) [Example 1, N-[2-(5-Bromopyridin-3-yl)-2-azabicyclo[3.1.0]hex-3-ylmethyl]-dimethylamine hydrochloride]
- AUC(0-t) ([1]; plasma, 5 mg/kg, Intravenous): 901 ± 47 ng·h/mL
- Cmax ([1]; plasma, 5 mg/kg, Intravenous): 1940 ± 260 ng/mL
- Tmax ([1]; plasma, 5 mg/kg, Intravenous): 8.4 ± 6 min
- half-life ([1]; plasma, 5 mg/kg, Intravenous): 59.4 ± 15 min
- bioavailability ([1]; plasma, 15 mg/kg Per-Oral vs 5 mg/kg Intravenous): 10 ± 5%
- AUC(0-t) ([1]; plasma, 15 mg/kg, Per-Oral): 273 ± 160 ng·h/mL
- Cmax ([1]; plasma, 15 mg/kg, Per-Oral): 219 ± 120 ng/mL
- Tmax ([1]; plasma, 15 mg/kg, Per-Oral): 15 min
- half-life ([1]; plasma, 15 mg/kg, Per-Oral): 34.8 ± 7.8 min
- Ki ([2]; read-out: Ki): 23 nM
- Kb ([3]; read-out: Kb): 1.4 nM

Structure (SMILES): Brc1cncc(N2C(CN3CCNCC3)CC3CC32)c1 (centres unmarked) [Example 8, 2-(5-Bromopyridin-3-yl)-3-(piperazin-1-ylmethyl)-2-azabicyclo[3.1.0]hexane]
- Ki ([2]; read-out: Ki): 610 nM
- Kb ([3]; Kb): 4.6 nM

Structure (SMILES): Brc1cncc(N2C(CN3CCNCC3)CC3CC32)c1 (centres unmarked) [Example 9, 2-(5-Bromopyridin-3-yl)-3-(piperazin-1-ylmethyl)-2-aza-bicyclo[3.1.0]hexane]
- Kb ([3]; Kb): 73.1 nM

Structure (SMILES): CNCC1CC2CC2N1c1ccc(C(F)(F)F)nc1.O=C(O)/C=C/C(=O)O (centres unmarked) [Example 23, N-(2-(2-trifluoromethylpyridin-5-yl)-2-azabicyclo[3.1.0]hex-3-ylmethyl) methyl amine fumarate]
- Kp [4]: 1.97 ± 0.08
- bioavailability [1, 5]: 67 ± 9%
- AUC(0-t) ([1]; plasma, 5 mg/kg, Intravenous): 18000 ± 3300 ng·h/mL
- Cmax ([1]; plasma, 5 mg/kg, Intravenous): 3640 ± 89 ng/mL
- Tmax ([1]; plasma, 5 mg/kg, Intravenous): 4.8 min
- half-life ([1]; plasma, 5 mg/kg, Intravenous): 415 ± 145 min
- AUC(0-t) ([1]; plasma, 5 mg/kg, Per-Oral): 12000 ± 1740 ng·h/mL
- Cmax ([1]; plasma, 5 mg/kg, Per-Oral): 2310 ± 163 ng/mL
- Tmax ([1]; plasma, 5 mg/kg, Per-Oral): 19.8 ± 8.4 min
- half-life ([1]; plasma, 5 mg/kg, Per-Oral): 307 ± 11.4 min
- Ki ([2]; read-out: Ki): 2 nM

Structure (SMILES): CNCC1CC2CC2N1c1cncnc1.O=C(O)/C=C/C(=O)O (centres unmarked) [Example 21, N-(2-(pyrimidin-5-yl)-2-azabicyclo[3.1.0]hex-3-ylmethyl)methyl amine fumarate]
- Kp [4]: 1.74 ± 0.27
- bioavailability [1, 5]: 101 ± 20%
- AUC(0-t) ([1]; plasma, 5 mg/kg, Intravenous): 2030 ± 525 ng·h/mL
- Cmax ([1]; plasma, 5 mg/kg, Intravenous): 1570 ± 261 ng/mL
- Tmax ([1]; plasma, 5 mg/kg, Intravenous): 4.8 min
- half-life ([1]; plasma, 5 mg/kg, Intravenous): 85.8 ± 10.8 min
- AUC(0-t) ([1]; plasma, 5 mg/kg, Per-Oral): 1970 ± 100 ng·h/mL
- Cmax ([1]; plasma, 5 mg/kg, Per-Oral): 685 ± 107 ng/mL
- Tmax ([1]; plasma, 5 mg/kg, Per-Oral): 37.8 ± 15 min
- half-life ([1]; plasma, 5 mg/kg, Per-Oral): 78 ± 22.2 min
- Ki ([2]; read-out: Ki): 465 nM

Structure (SMILES): CN(C)CC1CC2CC2N1c1cccnc1 (centres unmarked) [Example 10, N-[2-(Pyridin-3-yl)-2-azabicyclo[3.1.0]hex-3-ylmethyl]dimethylamine]
- Ki ([2]; read-out: Ki): 77 nM
- Kb ([3]; read-out: Kb): 3.4 nM

Structure (SMILES): NCC1CC2CC2N1c1cccnc1 (centres unmarked) [Example 18, [2-(Pyridin-3-yl)-2-azabicyclo[3.1.0]hex-3-yl] methylamine fumarate]
- Kp [4]: 3.52 ± 0.13
- Inference (Male Wister rats): Active
- % Suppression of food intake compared to vehicle, 1 Hour (Male Wister rats; 1 Hour, 18 hour fasted rats): 36.80%
- % Suppression of food intake compared to vehicle, 2 Hour (Male Wister rats; 2 Hour, 18 hour fasted rats): 33.05%
- % Suppression of food intake compared to vehicle, 4 Hour (Male Wister rats; 4 Hour, 18 hour fasted rats): 30.02%
- % Suppression of food intake compared to vehicle, 6 Hour (Male Wister rats; 6 Hour, 18 hour fasted rats): 25.38%
- bioavailability ([1]; in vivo, 5 mg/kg Per-Oral vs 5 mg/kg Intravenous): 87 ± 24%
- AUC(0-t) ([1]; in vivo, 5 mg/kg, Intravenous): 1760 ± 228 ng·h/mL
- Cmax ([1]; in vivo, 5 mg/kg, Intravenous): 701 ± 213 ng/mL
- Tmax ([1]; in vivo, 5 mg/kg, Intravenous): 22.8 ± 8.4 min
- half-life ([1]; in vivo, 5 mg/kg, Intravenous): 85.8 ± 6.6 min
- AUC(0-t) ([1]; in vivo, 5 mg/kg, Per-Oral): 1540 ± 165 ng·h/mL
- Cmax ([1]; in vivo, 5 mg/kg, Per-Oral): 355 ± 53 ng/mL
- Tmax ([1]; in vivo, 5 mg/kg, Per-Oral): 4.8 min
- half-life ([1]; in vivo, 5 mg/kg, Per-Oral): 105 ± 24 min
- Ki [2]: 6.4 nM

Structure (SMILES): CNCC1CC2CC2N1c1cncc(Br)c1 (centres unmarked) [Example 11, N-[2-(5-Bromopyridin-3-yl)-2-azabicyclo[3.1.0]hex-3-ylmethyl]methylamine]
- Kp (in vivo): 8.75 ± 1.59
- AUC(0-t) ([1]; in vivo, 5 mg/kg, Intravenous): 2540 ± 1300 ng·h/mL
- Cmax ([1]; in vivo, 5 mg/kg, Intravenous): 1440 ± 330 ng/mL
- Tmax ([1]; in vivo, 5 mg/kg, Intravenous): 4.8 min
- half-life ([1]; in vivo, 5 mg/kg, Intravenous): 87 ± 31.8 min
- bioavailability ([1]; in vivo, 15 mg/kg Per-Oral vs 5 mg/kg Intravenous): 59 ± 31%
- AUC(0-t) ([1]; in vivo, 15 mg/kg, Per-Oral): 3880 ± 846 ng·h/mL
- Cmax ([1]; in vivo, 15 mg/kg, Per-Oral): 1990 ± 435 ng/mL
- Tmax ([1]; in vivo, 15 mg/kg, Per-Oral): 18.6 ± 7.8 min
- half-life ([1]; in vivo, 15 mg/kg, Per-Oral): 115 ± 72 min
- Ki ([2]; read-out: Ki): 46.4 nM

— US8653071B2, “α4β2 neuronal nicotinic acetylcholine receptor ligands” (Suven Life Sciences Limited, priority 2009, dated 2014)
